{"source": "ChEMBL document CHEMBL1151355", "about": "“The isolation of loliolide from an Indian Ocean opisthobranch mollusc” (1980)", "key": {"[1]": {"tested_on": "KB", "test": "Cytotoxicity against human KB cells", "assay_type": "functional", "settings": "read-out: ED50 (the source's name)"}, "[2]": {"tested_on": "P388", "test": "Cytotoxicity against mouse P388 cells", "assay_type": "functional", "settings": "read-out: ED50 (the source's name)"}, "[3]": {"tested_on": "P388", "test": "In vivo cytotoxicity against mouse P388 cells at 2.5 to 10 mg/kg", "assay_type": "functional, organism-based"}}, "note": "The source made the active and inactive calls. The rule behind the calls is not given here."}
{"smiles": "CC1(C)CC(O)C[C@@]2(C)OC(=O)C=C12", "note": "(stereo partly drawn)", "values": [{"measurement": "EC50", "setting": "[1]", "value": 10, "unit": "µg/mL"}, {"measurement": "EC50", "setting": "[2]", "value": 3.5, "unit": "µg/mL"}, {"measurement": "Activity", "setting": "[3]", "value": "inactive"}]}
